Data reported in patent publication US12281363B2, “Methods for detecting antiviral-drug resistant virus” (Secretary of State for Health and Social Care, priority 2018, dated 2025).
Read-outs that look alike come from different tables or passages of the source.

System: HSV-1
Assay: Plaque reduction assay, HSV-1 clinical isolates on Vero cells
Format: cell-based
Conditions: Human alphaherpesvirus 1, Vero
Source text: Viral isolates were used to infect a sub-confluent monolayer of Vero cells at a concentration of 75 or 50 plaque forming units (PFU) per well for HSV-1 and HSV-2, respectively. […] CMC medium typically used to create a semisolid interface and prevents indiscrimate viral spreading. Other materials (e.g. agar) may also be used to create this interface.
Cells were fixed with 10% formalin and stained with crystal violet before enumeration of the plaques (microscopic observation or use of fluorescent antibodies for detection is also suitable). The data obtained from these experiments were then expressed as percent inhibition of viral infectivity relative to the no drug control.
Definitions of phenotypic drug susceptibility classification as sensitive or resistant were as follows: ACV, <3 μM or >40 μM; PCV, <10 μM or >40 μM; CDV, <24 μM or >30 μM; FOS, <250 μM or >400 μM; and ACV, <6.5 μM or >40 μM; PCV, <38 μM or >40 μM; FOS, <250 μM or >400 μM for HSV-1 and HSV-2, respectively. Any IC50 values falling in between these sensitive and resistant cut-offs were reported as intermediate resistance.
The phenotype (i.e. reactivity to a drug) of the virus was characterised by the plaque reduction assay as described above.

O=C(O)P(=O)(O)O [Foscarnet, foscarnet]
IC50 (isolate HPG033, HSV-1 TK I358L (1072A>C), also TK T287M, read-out: Drug susceptibility (IC50 value)): 88.3 µM | IC50 (isolate HPG033, HSV-1 TK I358L (1072A>C), also TK T287M, read-out: Drug susceptibility Foscarnet (FOS)): < 250 µM | IC50 (isolate HPG033, HSV-1 pol N1046T (3137A>C), also TK T287M, pol A1169T, read-out: Drug susceptibility (IC50 value)): 88.3 µM | IC50 (isolate HPG033, HSV-1 pol N1046T (3137A>C), also TK T287M, pol A1169T, read-out: Drug susceptibility Foscarnet (FOS)): < 250 µM | IC50 (isolate HPG035, HSV-1 pol S239L (716C>T), also pol S724N, read-out: Drug susceptibility (IC50 value)): 701 µM | IC50 (isolate HPG035, HSV-1 pol S239L (716C>T), also pol S724N, read-out: Drug susceptibility Foscarnet (FOS)): > 400 µM | IC50 (isolate HPG037, HSV-1 TK L69M (205>A), also TK Y239H, read-out: Drug susceptibility Foscarnet (FOS)): < 250 µM | IC50 (isolate HPG037, HSV-1 TK R256W (766C>T), read-out: Drug susceptibility (IC50 value)): 80 µM | IC50 (isolate HPG037, HSV-1 TK R256W (766C>T), read-out: Drug susceptibility Foscarnet (FOS)): < 250 µM | IC50 (isolate HPG037, HSV-1 TK Y239H (715T>C), read-out: Drug susceptibility (IC50 value)): 80 µM | IC50 (isolate HPG037, HSV-1 TK Y239H (715T>C), read-out: Drug susceptibility Foscarnet (FOS)): < 250 µM | IC50 (isolate HPG039, HSV-1 TK 85* or H58fs (169delC, 170delC, 171delC, or 172delC), read-out: Drug susceptibility (IC50 value)): 59.8 µM | IC50 (isolate HPG039, HSV-1 TK 85* or H58fs (169delC, 170delC, 171delC, or 172delC), read-out: Drug susceptibility Foscarnet (FOS)): < 250 µM | IC50 (isolate HPG040, HSV-1 pol S911N (2732G>A), also TK deletion (C) nt 896-900, pol A1169T, read-out: Drug susceptibility (IC50 value)): 137 µM | IC50 (isolate HPG040, HSV-1 pol S911N (2732G>A), also TK deletion (C) nt 896-900, pol A1169T, read-out: Drug susceptibility Foscarnet (FOS)): < 250 µM | IC50 (isolate HPG041, HSV-1 pol S911N (2732G>A), also pol A1169T, read-out: Drug susceptibility (IC50 value)): 89.5 µM | IC50 (isolate HPG041, HSV-1 pol S911N (2732G>A), also pol A1169T, read-out: Drug susceptibility Foscarnet (FOS)): < 250 µM | IC50 (isolate HPG042, HSV-1 pol A972V (2915C>T), also TK deletion (C) nt 881-885, pol A1169T, read-out: Drug susceptibility (IC50 value)): 60.7 µM | IC50 (isolate HPG042, HSV-1 pol A972V (2915C>T), also TK deletion (C) nt 881-885, pol A1169T, read-out: Drug susceptibility Foscarnet (FOS)): < 250 µM | IC50 (isolate HPG042, HSV-1 pol G22R (64G>A), also TK deletion (C) nt 881-885, pol A1169T, read-out: Drug susceptibility (IC50 value)): 60.7 µM | IC50 (isolate HPG042, HSV-1 pol G22R (64G>A), also TK deletion (C) nt 881-885, pol A1169T, read-out: Drug susceptibility Foscarnet (FOS)): < 250 µM | IC50 (isolate HPG043, HSV-1 TK 183* (437_438insA), read-out: Drug susceptibility (IC50 value)): 69 µM | IC50 (isolate HPG043, HSV-1 TK 183* (437_438insA), read-out: Drug susceptibility Foscarnet (FOS)): < 250 µM | IC50 (isolate HPG045, HSV-1 TK L49R (146T>G), read-out: Drug susceptibility (IC50 value)): 75 µM | IC50 (isolate HPG045, HSV-1 TK L49R (146T>G), read-out: Drug susceptibility Foscarnet (FOS)): < 250 µM | IC50 (isolate HPG045, HSV-1 pol L419I (1255C>A), also TK L49R, pol A1169T, read-out: Drug susceptibility (IC50 value)): 75 µM | IC50 (isolate HPG045, HSV-1 pol L419I (1255C>A), also TK L49R, pol A1169T, read-out: Drug susceptibility Foscarnet (FOS)): < 250 µM | IC50 (isolate HPG046, HSV-1 TK I166N (497T>A), read-out: Drug susceptibility (IC50 value)): < 50 µM | IC50 (isolate HPG046, HSV-1 TK I166N (497T>A), read-out: Drug susceptibility Foscarnet (FOS)): < 250 µM | IC50 (isolate HPG047, HSV-1 pol E680 (2039A>C), also TK deletion (C) nt 548-553, pol A1169T, read-out: Drug susceptibility Foscarnet (FOS)): < 250 µM | IC50 (isolate HPG050, HSV-1 TK Q34* (100C>T), read-out: Drug susceptibility (IC50 value)): 169 µM | IC50 (isolate HPG050, HSV-1 TK Q34* (100C>T), read-out: Drug susceptibility Foscarnet (FOS)): < 250 µM | IC50 (isolate HPG051, HSV-1 pol D83A (248A>C), also TK R176stop, read-out: Drug susceptibility (IC50 value)): 82.6 µM | IC50 (isolate HPG051, HSV-1 pol D83A (248A>C), also TK R176stop, read-out: Drug susceptibility Foscarnet (FOS)): < 250 µM | IC50 (isolate HPG052, HSV-1 TK Q34* (100C>T), read-out: Drug susceptibility (IC50 value)): 76.9 µM | IC50 (isolate HPG052, HSV-1 TK Q34* (100C>T), read-out: Drug susceptibility Foscarnet (FOS)): < 250 µM | IC50 (isolate HPG053, HSV-1 pol L802R + A834S (2405T>G, 2500G>T), also TK R176W, read-out: Drug susceptibility Foscarnet (FOS)): > 400 µM | IC50 (isolate HPG053, HSV-1 pol S911N (2732G>A), also TK R176W, pol A1169T, read-out: Drug susceptibility (IC50 value)): 626 µM | IC50 (isolate HPG053, HSV-1 pol S911N (2732G>A), also TK R176W, pol A1169T, read-out: Drug susceptibility Foscarnet (FOS)): > 400 µM | IC50 (isolate HPG054, HSV-1 pol E992K (2974G>A), also TK insert (G) nt 430-436, pol A1169T, read-out: Drug susceptibility (IC50 value)): 52.9 µM | IC50 (isolate HPG054, HSV-1 pol E992K (2974G>A), also TK insert (G) nt 430-436, pol A1169T, read-out: Drug susceptibility Foscarnet (FOS)): < 250 µM | IC50 (isolate HPG055, HSV-1 TK V204G (611T>G), also pol A1169AT, read-out: Drug susceptibility (IC50 value)): < 50 µM | IC50 (isolate HPG055, HSV-1 TK V204G (611T>G), also pol A1169AT, read-out: Drug susceptibility Foscarnet (FOS)): < 250 µM | IC50 (read-out: Drug susceptibility (IC50 value), isolate HPG005, HSV-1 TK A192T (574G>A)): < 50 µM | IC50 (read-out: Drug susceptibility (IC50 value), isolate HPG006, HSV-1 pol G121S (361G>A), also a TK resistance mutation (footnote a)): 115 µM | IC50 (read-out: Drug susceptibility (IC50 value), isolate HPG012, HSV-1 pol G985E (2954G>A), also TK A93V): 92.1 µM | IC50 (read-out: Drug susceptibility (IC50 value), isolate HPG016, HSV-1 pol A1169T (3505G>A)): 154 µM | IC50 (read-out: Drug susceptibility (IC50 value), isolate HPG037, HSV-1 TK L69M (205>A), also TK Y239H): 80 µM | IC50 (read-out: Drug susceptibility (IC50 value), isolate HPG042, HSV-1 TK frameshift (881delC to 885delC)): 60.7 µM | IC50 (read-out: Drug susceptibility (IC50 value), isolate HPG047, HSV-1 pol E680 (2039A>C), also TK deletion (C) nt 548-553, pol A1169T): 92.4 µM | IC50 (read-out: Drug susceptibility Foscarnet (FOS), isolate HPG005, HSV-1 TK A192T (574G>A)): < 250 µM | IC50 (read-out: Drug susceptibility Foscarnet (FOS), isolate HPG006, HSV-1 pol G121S (361G>A), also a TK resistance mutation (footnote a)): < 250 µM | IC50 (read-out: Drug susceptibility Foscarnet (FOS), isolate HPG012, HSV-1 pol G985E (2954G>A), also TK A93V): < 250 µM | IC50 (read-out: Drug susceptibility Foscarnet (FOS), isolate HPG016, HSV-1 pol A1169T (3505G>A)): < 250 µM | IC50 (read-out: Drug susceptibility Foscarnet (FOS), isolate HPG042, HSV-1 TK frameshift (881delC to 885delC)): < 250 µM
